From paper PMC3172300, “Modulation of Catalytic Activity in Multi-Domain Protein Tyrosine Phosphatases” (PLoS ONE, 2011)
Changes are numbered by the printed parent chain. “And” between values parts separate entries of the source, which are not always exact repeats. Equal entries are not always repeated. Where two headings read alike, the source gives them in different places. Square brackets hold non-standard residues; d marks the D form. Peptide text beside a SMILES is read from it. pY = N[C@@H](Cc1ccc(OP(=O)(O)O)cc1)C(=O)O

How the values were obtained:
DLAR D1D2 = target: T1, DLAR D1D2 (Drosophila melanogaster, UniProt P16621); experiment: Surface Plasmon Resonance peptide binding, DLAR D1D2; conditions: two-site model, read-out: ka
T1 construct: DLAR 1448-2029; His tag (pET-15b or pET-22b); made in house; host or cells: E. coli BL21(DE3)
T1 sequence (P16621 1448-2029): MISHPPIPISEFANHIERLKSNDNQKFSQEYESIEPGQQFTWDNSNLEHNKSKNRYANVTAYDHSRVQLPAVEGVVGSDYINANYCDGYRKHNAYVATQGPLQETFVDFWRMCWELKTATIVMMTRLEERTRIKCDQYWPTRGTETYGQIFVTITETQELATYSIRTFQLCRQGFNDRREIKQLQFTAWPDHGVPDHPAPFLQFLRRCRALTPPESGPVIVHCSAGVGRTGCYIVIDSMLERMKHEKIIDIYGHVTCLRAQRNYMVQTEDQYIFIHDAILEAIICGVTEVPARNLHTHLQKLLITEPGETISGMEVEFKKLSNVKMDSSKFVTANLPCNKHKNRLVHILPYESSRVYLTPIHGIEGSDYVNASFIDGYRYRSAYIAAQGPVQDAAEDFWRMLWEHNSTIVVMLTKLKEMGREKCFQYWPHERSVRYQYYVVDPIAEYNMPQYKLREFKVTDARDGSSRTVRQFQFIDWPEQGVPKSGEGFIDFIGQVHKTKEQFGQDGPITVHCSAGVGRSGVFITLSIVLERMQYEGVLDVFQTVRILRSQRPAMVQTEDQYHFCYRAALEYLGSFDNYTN
Description: (§1) The binding of phosphotyrosine peptides to the PTP domains was studied by Surface Plasmon Resonance on a Biacore-2000 instrument (BIAcore, AB). All experiments were conducted at 25°C. DLAR PTP domains were immobilized onto carboxylated dextran CM5 chips (BIAcore AB) using the standard amine coupling procedure as recommended by the manufacturer. Binding and kinetic assays were performed in 10 mM HEPES, pH 8.0, 150 mM NaCl, 10 mM DTT and 3 mM EDTA at a flow rate of 5 µL/min. The peptides were used at concentrations ranging from 50–700 µM. Dissociation was initiated by replacing the analyte with buffer. The association and dissociation curves were monitored for 600 sec. Sensograms were analyzed with BIA-evaluation software version 2 (BIAcore AB). Sensograms for DLAR D1D2, DLAR D1HSSD2 and DLAR D1D2HSS were fitted to two-site binding equations. DLAR D1 and DLAR D2 sensograms were fitted using a single-site binding model.

DLAR D1HSS D2 = target: T2, DLAR D1HSS D2 (Drosophila melanogaster, UniProt P16621, C1670S); experiment: Surface Plasmon Resonance peptide binding, DLAR D1HSS D2; conditions: two-site model, read-out: ka
T2 construct: DLAR 1448-2029; His tag (pET-15b or pET-22b); made in house; host or cells: E. coli BL21(DE3)
T2 sequence (P16621 1448-2029 C1670S): T1 sequence (P16621 1448-2029) with C223S
Description: as §1

DLAR D1 = target: T3, DLAR D1 (Drosophila melanogaster, UniProt P16621); experiment: Phosphatase assay using pNPP, DLAR D1; type: biochemical; conditions: CGH buffer pH 6.5, 100 mM NaCl, 2 mM DTT
T3 construct: DLAR 1448-1746; His tag (pET-15b or pET-22b); made in house; host or cells: E. coli BL21(DE3)
T3 sequence (P16621 1448-1746): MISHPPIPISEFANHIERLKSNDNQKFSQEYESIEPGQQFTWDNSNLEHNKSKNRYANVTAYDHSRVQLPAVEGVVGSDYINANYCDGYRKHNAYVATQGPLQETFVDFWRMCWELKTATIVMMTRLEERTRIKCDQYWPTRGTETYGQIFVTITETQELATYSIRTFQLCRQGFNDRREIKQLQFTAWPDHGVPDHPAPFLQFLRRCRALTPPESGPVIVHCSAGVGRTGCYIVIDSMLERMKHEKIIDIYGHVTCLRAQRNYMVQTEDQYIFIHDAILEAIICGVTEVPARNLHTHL
Description: Phosphatase activity of the recombinant PTP domains was determined by using para-Nitrophenylphosphate (pNPP), a small molecule generic substrate, as well as phosphotyrosine containing peptides. The pNPP assay was performed as reported previously, with a modification in the buffer composition (25 mM Citrate, Glycine and HEPES (CGH), pH 6.5, 100 mM NaCl and 2 mM DTT). Phosphatase activity with the phosphotyrosine peptides was ascertained by the malachite green reaction as described for PTPs previously. Briefly, the reaction mixture comprised of 0.01 µM protein incubated with increasing concentrations of different peptides in 25 mM citrate buffer pH 6.0, 100 mM NaCl and 2 mM DTT for 15 min at 25°C. The reaction was stopped by the addition of the Biomol Green reagent (Enzo Life Sciences) and the colour developed after 20 min was quantified at 650 nm. For all the assays, kinetic constants for the steady state catalysis were obtained by fitting the reaction curves to the Michaelis-Menten equation using the nonlinear regression module of Sigma plot software (Systat Software, Inc.).
The tandem PTP domains of PTP99A (PTP99A D1D2) and DLAR (DLAR D1D2) , the individual PTP domains (D1 and D2) as well as the active site mutants were expressed in E. coli and were purified using the protocols described earlier (Figure 1a, Figure S1a, b & c). The biochemical characterization and catalytic activity measurements were performed using pNPP as a substrate. […] Thus the D2 domain appears to have a regulatory role in both RPTPs- decreasing the catalytic activity in the case of DLAR while increasing the catalytic activity in the case of PTP99A (Figure 1b).

[1] = pH 8, SPR Biacore-2000, 25°C, 10 mM HEPES pH 8.0, 150 mM NaCl, 10 mM DTT, 3 mM EDTA, peptides 50–700 µM, first binding site
[2] = pH 8, SPR, 25°C, pH 8.0, second binding site

SMILES	kon (DLAR D1D2; [1]) [M⁻¹ s⁻¹]	kon (DLAR D1D2; [2]) [M⁻¹ s⁻¹]	kon (DLAR D1HSS D2; [1]) [M⁻¹ s⁻¹]	kon (DLAR D1HSS D2; [2]) [M⁻¹ s⁻¹]	Kcat (DLAR D1) [s⁻¹]	Kcat/Km (DLAR D1)	Vmax (DLAR D1; Michaelis-Menten fit)
CC(C)C[C@H](NC(=O)[C@H](C)NC(=O)CNC(=O)[C@H](Cc1ccc(OP(=O)(O)O)cc1)NC(=O)[C@H](CC(=O)O)NC(=O)[C@@H]1CCCN1C(=O)[C@H](CCC(=O)O)NC(=O)[C@H](C)NC(=O)[C@@H](N)[C@@H](C)O)C(=O)N[C@@H](Cc1ccc(O)cc1)C(=O)N[C@@H](CCC(=O)O)C(=O)O [Cuticle peptide] (H-TAEPD[pY]GALYE-OH)	32.6 ± 1.57	16500 ± 2.3e+07	74.7 ± 2.41	28800 ± 8e+06			
O=[N+]([O-])c1ccc(OP(=O)(O)O)cc1 [pNPP, para-Nitrophenylphosphate]					16.10 ± 0.27	16.03 ± 0.11 x 10^3 sec^-1M^-1	20.56 µmol/min/mg and 20.56 ± 0.34 µmol/min/mg
